Where a SMILES comes first, the peptide text is derived from it.
Molecular target: HLA A*3201 (Homo sapiens, UniProt P04439, A270S/D101S/D185E/E176V/E277Q/F133L/G103R/G107R/G231S/H175R/I121M/I218V/I322F/K168Q/L105A/L300P/L318F/M331R/P208A/P217A/Q94H/R106L/R138Q/S129P/T104I/T323A/T345S/V100E/V321M/V358M)
Assay: biochemical
Format: binding

Row | Structure (SMILES) | IC50 [nM]
1 | CSCC[C@H](NC(=O)[C@H](C)NC(=O)[C@@H](N)CC(C)C)C(=O)N[C@@H](CC(N)=O)C(=O)N[C@@H](CO)C(=O)N[C@H](C(=O)N[C@@H](Cc1ccccc1)C(=O)N[C@H](C(=O)N[C@@H](Cc1ccccc1)C(=O)O)[C@@H](C)O)C(C)C [3102.0426] (H-LAMNSVFTF-OH) | 16
2 | CC[C@H](C)[C@H](NC(=O)[C@H](CC(C)C)NC(=O)[C@H](CC(N)=O)NC(=O)[C@H](C)NC(=O)[C@H](Cc1ccccc1)NC(=O)[C@H](CCCNC(=N)N)NC(=O)[C@H](CO)NC(=O)[C@@H](NC(=O)[C@@H](N)CCCNC(=N)N)[C@@H](C)CC)C(=O)O [3102.0360] (H-RISRFANLI-OH) | 6.2
3 | CSCC[C@H](N)C(=O)N[C@H](C(=O)N[C@@H](CS)C(=O)NCC(=O)N[C@@H](CCC(N)=O)C(=O)N1CCC[C@H]1C(=O)N[C@@H](CC(C)C)C(=O)N[C@@H](CO)C(=O)N[C@@H](CC(C)C)C(=O)O)[C@@H](C)O [3102.0339] (H-MTCGQPLSL-OH) | 5.6
4 | CC[C@H](C)[C@H](NC(=O)[C@H](CCCNC(=N)N)NC(=O)[C@H](CCC(N)=O)NC(=O)[C@H](C)NC(=O)[C@@H](NC(=O)[C@H](CC(N)=O)NC(=O)[C@H](Cc1ccccc1)NC(=O)[C@H](CC(C)C)NC(=O)[C@@H](N)CCCCN)[C@@H](C)CC)C(=O)O [3102.0323] (H-KLFNIAQRI-OH) | 1.6
5 | CC[C@H](C)[C@H](NC(=O)[C@@H]1CCCN1C(=O)[C@H](Cc1c[nH]cn1)NC(=O)[C@H](CC(N)=O)NC(=O)[C@@H](NC(=O)[C@H](CC(=O)O)NC(=O)[C@H](CCSC)NC(=O)[C@@H](NC(=O)[C@@H](N)CO)[C@@H](C)O)C(C)C)C(=O)O [3102.0467] (H-STMDVNHPI-OH) | 7.4
6 | CC[C@H](C)[C@H](NC(=O)[C@@H](N)CO)C(=O)N[C@@H](Cc1ccc(O)cc1)C(=O)N[C@@H](CCCNC(=N)N)C(=O)N[C@@H](CCSC)C(=O)N[C@@H](CO)C(=O)N[C@@H](Cc1ccc(O)cc1)C(=O)N[C@@H](CCC(N)=O)C(=O)N[C@@H](Cc1ccccc1)C(=O)O [3102.0425] (H-SIYRMSYQF-OH) | 0.8
7 | CSCC[C@H](NC(=O)[C@@H](N)CCCCN)C(=O)N[C@@H](CC(=O)O)C(=O)N[C@@H](CC(N)=O)C(=O)NCC(=O)N[C@H](C(=O)N[C@@H](CC(C)C)C(=O)N[C@@H](CCC(=O)O)C(=O)N[C@@H](Cc1ccccc1)C(=O)O)[C@@H](C)O [3102.0365] (H-KMDNGTLEF-OH) | 0.92
8 | CC[C@H](C)[C@H](NC(=O)[C@H](CCCCN)NC(=O)CNC(=O)[C@H](CC(N)=O)NC(=O)[C@@H](NC(=O)[C@@H](N)CCSC)[C@@H](C)O)C(=O)N[C@@H](CC(N)=O)C(=O)N[C@@H](CO)C(=O)N[C@@H](CC(C)C)C(=O)O [3102.0386] (H-MTNGKINSL-OH) | 22
9 | CC[C@H](C)[C@H](N)C(=O)N[C@H](C(=O)N[C@@H](CO)C(=O)N[C@H](C(=O)N[C@H](C(=O)N[C@@H](CO)C(=O)N[C@@H](CC(C)C)C(=O)N[C@H](C(=O)N[C@H](C(=O)O)[C@@H](C)CC)C(C)C)[C@@H](C)CC)C(C)C)[C@@H](C)CC [3102.0334] (H-IISVISLVI-OH) | 47
10 | CC[C@H](C)[C@H](NC(=O)[C@H](CO)NC(=O)[C@H](C)NC(=O)[C@H](Cc1ccc(O)cc1)NC(=O)[C@@H](NC(=O)[C@H](CCC(=O)O)NC(=O)[C@H](CC(N)=O)NC(=O)[C@@H](NC(=O)[C@@H](N)CC(C)C)[C@@H](C)O)[C@@H](C)CC)C(=O)O [3102.0445] (H-LTNEIYASI-OH) | 13
11 | CC[C@H](C)[C@H](NC(=O)[C@@H](NC(=O)[C@H](CC(N)=O)NC(=O)[C@H](Cc1ccccc1)NC(=O)[C@H](Cc1ccccc1)NC(=O)[C@@H](NC(=O)[C@@H](NC(=O)[C@@H](NC(=O)[C@@H](N)CCCCN)C(C)C)C(C)C)[C@@H](C)CC)[C@@H](C)O)C(=O)O [3102.0430] (H-KVVIFFNTI-OH) | 8.3
12 | CC[C@H](C)[C@H](NC(=O)[C@@H](NC(=O)[C@H](Cc1ccccc1)NC(=O)[C@H](Cc1ccccc1)NC(=O)[C@H](CC(C)C)NC(=O)[C@H](Cc1ccccc1)NC(=O)[C@H](CC(=O)O)NC(=O)[C@@H](NC(=O)[C@@H](N)CCCCN)[C@@H](C)CC)[C@@H](C)CC)C(=O)O [3102.0306] (H-KIDFLFFII-OH) | 2
13 | CC[C@H](C)[C@H](NC(=O)[C@@H](NC(=O)[C@H](CC(C)C)NC(=O)[C@H](CC(C)C)NC(=O)[C@H](CC(C)C)NC(=O)[C@H](CO)NC(=O)[C@H](Cc1ccccc1)NC(=O)[C@H](CC(C)C)NC(=O)[C@@H](N)CO)C(C)C)C(=O)O [3102.0328] (H-SLFSLLLVI-OH) | 28
14 | CC[C@H](C)[C@H](NC(=O)[C@H](CCCCN)NC(=O)[C@H](Cc1ccccc1)NC(=O)[C@H](CC(N)=O)NC(=O)[C@H](CC(N)=O)NC(=O)[C@H](Cc1ccccc1)NC(=O)[C@H](CC(C)C)NC(=O)[C@@H](NC(=O)[C@@H](N)CCCNC(=N)N)C(C)C)C(=O)O [3102.0429] (H-RVLFNNFKI-OH) | 0.89
15 | CC[C@H](C)[C@H](N)C(=O)N[C@H](C(=O)N[C@@H](Cc1ccccc1)C(=O)N[C@@H](Cc1ccccc1)C(=O)N[C@H](C(=O)N[C@H](C(=O)N[C@@H](CC(C)C)C(=O)N[C@H](C(=O)N[C@@H](CC(C)C)C(=O)O)[C@@H](C)CC)C(C)C)[C@@H](C)CC)[C@@H](C)CC [3102.0436] (H-IIFFIVLIL-OH) | 12
16 | CC[C@H](C)[C@H](N)C(=O)N[C@@H](CCSC)C(=O)N[C@@H](CCSC)C(=O)N[C@H](C(=O)N[C@@H](CC(C)C)C(=O)N[C@@H](CO)C(=O)N[C@H](C(=O)N[C@H](C(=O)N[C@H](C(=O)O)[C@@H](C)CC)[C@@H](C)CC)[C@@H](C)O)[C@@H](C)CC [3102.0351] (H-IMMILSTII-OH) | 11
17 | CC[C@H](C)[C@H](NC(=O)[C@H](Cc1ccc(O)cc1)NC(=O)[C@@H](NC(=O)[C@@H](NC(=O)[C@@H](NC(=O)[C@H](CCSC)NC(=O)[C@@H](NC(=O)[C@@H](N)CCCCN)[C@@H](C)O)[C@@H](C)O)[C@@H](C)O)C(C)C)C(=O)N[C@@H](CC(C)C)C(=O)O [3102.0466] (H-KTMTTVYIL-OH) | 14
18 | CC[C@H](C)[C@H](NC(=O)[C@@H](NC(=O)[C@H](Cc1ccc(O)cc1)NC(=O)[C@H](CC(C)C)NC(=O)[C@@H](N)CCCCN)[C@@H](C)O)C(=O)N[C@H](C(=O)N[C@@H](CO)C(=O)N[C@H](C(=O)N[C@@H](CC(C)C)C(=O)O)[C@@H](C)O)C(C)C [3102.0508] (H-KLYTIVSTL-OH) | 7.1
19 | CC[C@H](C)[C@H](NC(=O)[C@H](CC(N)=O)NC(=O)[C@H](CCSC)NC(=O)[C@@H](NC(=O)[C@@H](N)CCSC)[C@@H](C)O)C(=O)N[C@H](C(=O)N[C@@H](CC(N)=O)C(=O)N[C@@H](Cc1ccccc1)C(=O)N[C@@H](Cc1ccccc1)C(=O)O)C(C)C [3102.0518] (H-MTMNIVNFF-OH) | 1.9
20 | CC[C@H](C)[C@H](NC(=O)[C@@H](NC(=O)[C@H](CO)NC(=O)[C@H](CC(C)C)NC(=O)[C@@H](NC(=O)[C@H](CCSC)NC(=O)[C@H](CCSC)NC(=O)[C@@H](NC(=O)[C@H](C)N)[C@@H](C)CC)[C@@H](C)CC)[C@@H](C)O)C(=O)O [3102.0350] (H-AIMMILSTI-OH) | 2.5
21 | CC[C@H](C)[C@H](NC(=O)[C@@H](NC(=O)[C@H](CC(C)C)NC(=O)[C@@H](NC(=O)[C@H](CCCNC(=N)N)NC(=O)[C@H](CC(N)=O)NC(=O)[C@@H](NC(=O)[C@@H](NC(=O)CN)[C@@H](C)O)[C@@H](C)CC)[C@@H](C)CC)C(C)C)C(=O)O [3102.0337] (H-GTINRILVI-OH) | 15

From PMC2248166, “Quantitative peptide binding motifs for 19 human and mouse MHC class I molecules derived using positional scanning combinatorial peptide libraries” (Immunome Research, 2008)
